The text below walks through data of patent US5874235A, “Screening assays for cancer chemopreventative agents” (The Johns Hopkins University, priority 1997, dated 1999).

Structures are written as SMILES. Where two headings read alike, the source gives them in different places.

Series [1] deals with neutral sphingomyelinase in SW480 cell lysates. Put plainly: Neutral sphingomyelinase activity in lysates of treated cells (14C-sphingomyelin hydrolysis). The format is cell-based, human. The note with it: SUS 50, 200 and 600 μM, 6 to 24 hours. How it is done:
To test whether the increased ceramide was associated with evidence of augmented sphingomyelinase activity, we measured total sphingomyelin levels after SUS treatment. […] We also measured neutral sphingomyelinase activity in lysates from the treated cells and no differences were found. Neutral sphingomyelinase activity was assayed as described (18). After cell lysis, protein concentrations were determined using the Bradford method (Bio-Rad) and […] cellular protein was used in each assay. Neutral sphingomyelinase activity was determined by measuring the rate of hydrolysis of ^14 C-labelled sphingomyelin (Amersham). SW480 and HCT116 cell lines were treated with SUS (50, 200, and 600 μM) for 6 to 24 hours.

Series [2] concerns HCT116 cells. The experiment in a line: Arachidonic acid levels, release of 3H-AA into the media. The format is cell-based, human. The note with it: for fold induction at 50 µM: 50 μM SUS, read-out: arachidonic acid levels relative to control; for increase in arachidonic acid: apoptosis-inducing doses of SUS. How it is done: FIGS. 4A, 4B, 4C, 4D, 4E and 4F. The role of arachidonic acid in NSAID-mediated apoptosis. […] HCT116 and SW480 cells were treated with the indicated concentrations of SUS or INDO. Arachidonic acid (AA) levels were determined by measuring release of ^3 H-AA into the media as previously described (18). Data are indicated as the mean of three replicates with the error bars corresponding to the standard deviation. In addition, the nature of the released radiolabeled material was evaluated by thin layer chromatography as previously described (28). […] HCT116 and SW480 cells were incubated with ^3 H-choline chloride (0.5 mCi ml^-1, 80 Ci mmol^-1, New England Nuclear) for 48 hours. After labeling, cells were washed with HBSS (Gibco) and treated with SUS or INDO for the indicated times. Sphingomyelin measurements were performed using the bacterial sphingomyelinase method as previously described (18). Sphingomyelin levels at each time point are plotted as a percentage of that in untreated control cells. For each point, the mean of at least two independent experiments is presented with the error bars corresponding to the standard deviations. […] SW480 cells were treated with 200 μM arachidonic acid (AA), SUS (SUS) or behenic acid as a control fatty acid (FA) as indicated. […] SW480 cells were treated with suboptimal doses (100 μM) of arachidonic acid (AA), SUS (SUS), or both (AA+SUS) as indicated. After 48 hours of treatment, apoptosis and ceramide increases were assessed as described for FIGS. 1 and 3, respectively. Ceramide increases (left axis) were expressed as fold increases relative to untreated cells. Apoptosis (right axis) was expressed as percent apoptotic cells minus percent apoptotic cells in untreated cells (5.6%+/-2.4). Data are indicated as the mean of duplicates with the error bars corresponding to the standard deviation.
Arachidonic acid is known to stimulate neutral sphingomyelinase (18), which catalyzes the conversion of sphingomyelin to ceramide. We therefore considered the possibility that inhibition of COX activity might lead to increases in arachidonic acid, the substrate for COX. To test this hypothesis, we first determined whether SUS stimulated arachidonic acid accumulation. In both SW480 and HCT 116 cells, apoptosis-inducing doses of SUS increased arachidonic acid by 2 to 3 fold at 24 hours and by approximately 5 fold at 48 hours (FIGS. 4A and 4B). The arachidonic acid increase following SUS treatment was as great as that following treatment with mellitin, a known activator of phospholipase A2. Arachidonic acid levels in HCT116 cells increased 3.5 fold one hour after treatment with 1 μM mellitin. Likewise, arachidonic acid levels increased 2.9 fold in SW480 cells one hour after mellitin treatment. Arachidonic acid (AA) levels were determined by measuring release of ^3 H-AA into the media as previously described (18). The nature of released radiolabeled material was evaluated by thin layer chromatography analysis as previously described (28).

Series [3] concerns immortalized human keratinocytes (HaCat). The experiment in a line: Apoptosis in immortalized keratinocytes. The series is classed as cell-based. The note with it: 48 h, read-out: cells that had undergone apoptosis. How it is done:
(§1) This ability of SUS is not limited to colon cancer cells; primary fibroblasts and immortalized keratinocytes can increase ceramide levels and undergo apoptosis in response to SUS. […] Forty-eight hours after exposure to 200 μM SUS greater than 70% of the cells had undergone apoptosis and ceramide levels were 8.2 and 4.7 fold increased in HDF and HaCat cells, respectively. This is consistent with NSAIDs' ability to reduce tumor formation in a variety of tissues (19) and their adverse effects on normal gastric mucosa, but it fails to explain the apparent greater sensitivity of tumor cells. The in vivo effect will likely depend on the local concentration of the NSAID in the incipient tumor microenvironment as well as the target cell's "lipid biostat" (20). The fact that the concentration of SUS is higher in the intestines than in other organs, due to enterohepatic circulation and due to the metabolic activation of sulindac to SUS by gut flora (21), may be responsible for its particular efficacy in intestinal tumorigenesis.

The next series concerns COX in HCT116 cells. Put plainly: COX activity in treated cells. The format is cell-based, human.
Series [4] deals with HCT116 cells. Put plainly: Ceramide levels, E. coli diacylglycerol (DAG) kinase assay. The series is classed as cell-based, human. Here is the method: Cells were harvested and ceramide was quantified. The first lane of each panel corresponds to a ceramide standard (ceramide type III, Sigma). […] HCT116 and SW480 cells were treated with SUS or INDO as indicated. Ceramide levels were determined as described above. […] Control cells were treated with DMSO vehicle only. Cells were harvested at the indicated times following treatment and ceramide levels were determined as described above. The data are plotted as the mean of at least two experiments with the error bars corresponding to the standard deviation.
Ceramide levels were measured using the Escherichia coli diacylglycerol (DAG) kinase assay as previously described (30) with the following modifications. After the initial lipid extraction, phases were broken by adding 2 ml chloroform and 2 ml 1M NaCl and lipids were washed with 1M NaCl prior to drying under nitrogen (32, 33). After solubilization, samples were sonicated for 15 seconds. The DAG reaction was performed for 30 minutes at 25° C. in a 100 μl reaction volume with 3.5 μg DAG kinase (Calbiochem) and […] γ^32 P-ATP (Dupont NEN, 6000 Ci/mmol). After extraction of the labeled lipids, the lower chloroform phase was washed with 1% HCl prior to drying under nitrogen. The solvent mixture for thin layer chromatography was chloroform:acetone:methanol:acetic acid:water (10:4:3:2:1). Samples were quantitated using a Phosphorimager (Molecular Dynamics).

Series [5] has as its system primary human diploid fibroblast (HDF). Put plainly: Apoptosis in primary fibroblasts. The format is cell-based. Conditions: 200 μM SUS, 48 hours, read-out: cells that had undergone apoptosis. Here is the method:
as §1

For `CSc1ccc(/C=C2/C(C)=C(CC(=O)O)c3cc(F)ccc32)cc1` [SUS, sulindac sulfide], the “neutral sphingomyelinase activity in cell lysates” value in series [1] is recorded as “None of these treatments enhanced neutral sphingomyelinase activity”. Also, the fold induction at 50 µM in the series on HCT116 cells [2] (Homo sapiens, HCT-116, 8 hours) is 0.9; in the series on HCT116 cells [2] (Homo sapiens, HCT-116, 16 hours) it was 1.05; with HCT116 cells [2] (Homo sapiens, HCT-116, 24 hours), 1.14. In the series on HCT116 cells [2] (Homo sapiens, HCT-116, 200 μM SUS, 16 hours, read-out: increase in arachidonic acid), the fold induction at 200 µM was 5.1. Moreover, the entries for the “increase in arachidonic acid” value in the series on HCT116 cells [2] (24 hours) and in the series with HCT116 cells [2] (48 hours) were 2 to 3 fold and “approximately 5 fold”, respectively. Further, the cytotoxicity at 200 µM in series [3] and in series [5] was greater than 70% in each case. In the series with COX in HCT116 cells (50 μM SUS), the “COX activity, % relative to controls” value is 98+/-30%. The “COX activity, % of controls” value in the series with COX in HCT116 cells (125 μM SUS) is given as 21+/-15%. In addition, the “ceramide levels early after treatment” value with HCT116 cells [4] (8 hours post-treatment, before morphologic features of apoptosis) is recorded as “increased to substantial levels”. In addition, in the series on HCT116 cells [4] (Homo sapiens, HCT-116, SUS 125 μM, with or without 10 μM CHX, 48 hours, read-out: fold increase in ceramide levels relative to vehicle controls), the fold induction at 125 µM was determined as 10 ± 0.4. Besides, the ceramide induction result in the series with HCT116 cells [4] (SUS 50 μM) is “induced neither”; with HCT116 cells [4] (SUS 125 μM), “induced both cell death and ceramide”. Also, the “time of maximum ceramide induction” value in the series with HCT116 cells [4] (SUS 125 μM) was in the range of 24 to 48 h.
